Target: T1, papain (Carica papaya, UniProt P00784)
T1 construct: purchased Sigma Chem. Co
T1 sequence (P00784 134-345): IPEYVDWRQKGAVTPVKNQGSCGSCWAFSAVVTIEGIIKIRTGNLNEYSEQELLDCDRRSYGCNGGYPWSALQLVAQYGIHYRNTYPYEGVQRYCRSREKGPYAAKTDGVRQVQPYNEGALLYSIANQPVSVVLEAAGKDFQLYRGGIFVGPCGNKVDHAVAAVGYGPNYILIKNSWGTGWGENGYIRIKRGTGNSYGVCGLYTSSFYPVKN
Test: Papain inhibitory activity (milk casein proteolysis)
Assay type: biochemical
Parameters: unit not given beside the values
Conditions: amount of inhibitor for 50% inhibition; pH 6.8, 40° C., casein substrate
Experimental: Papain inhibitory activity of the compounds of the present invention was assayed as follows: To 0.5 ml of a solution of papain (80 μg/ml, Sigma Chem. Co., 2x, cry.), were added 0.25 ml of 40 mM cysteine dissolved in 20 mM disodium ethylenediamine tetraacetic acid solution adjusted pH to 6.8 with sodium hydroxide and 0.25 ml of 33 mM phosphate buffer (pH 6.8) with or without inhibitor. After incubation for 15 minutes at 40° C., the resulting mixture was added to 5 ml of 1% milk casein solution in the same buffer as described above, and further incubated for 10 minutes at 40° C. Then the mixture was mixed with 5 ml of 0.44 M trichloroacetic acid solution and followed by filtration with a sheet of Toyo filter paper No. 4.
The extinction of the filtrate was read at 280 nm. The percent inhibition was calculated from the formula, 100×(B-A)/B; wherein B stands for the absorbance without inhibitor and A for the absorbance with inhibitor. The compound Nos. in Table 2 are as defined in Examples as described hereinafter.

Structure (SMILES)	ID50
CCOC(=O)[C@H]1O[C@@H]1C(N)=O (relative stereo) [Compound No. 55, ethyl 2,3-epoxysuccinamate]	3.14 γ
CCOC(=O)[C@H]1O[C@@H]1C(=O)N(CC(C)C)CC(C)C (relative stereo) [Compound No. 56, ethyl N,N-diisobutyl-2,3-epoxysuccinamate]	148.80 γ
CCOC(=O)[C@H]1O[C@@H]1C(=O)N(CC)CC (relative stereo) [Compound No. 57, ethyl N,N-diethyl-2,3-epoxysuccinamate]	46.30 γ
CCOC(=O)[C@H]1O[C@@H]1C(=O)N(C)Cc1ccccc1 (relative stereo) [Compound No. 58, ethyl N-methyl-N-benzyl-2,3-epoxysuccinamate]	231.50 γ
CCCN(C(=O)[C@H]1O[C@@H]1C(=O)OCC)c1ccccc1 (relative stereo) [Compound No. 59, ethyl N-propyl-N-phenyl-2,3-epoxysuccinamate]	154.50 γ
COC(=O)[C@H]1O[C@@H]1C(=O)NC1CCCCC1 (relative stereo) [Compound No. 61, Methyl N-cyclohexyl-2,3-epoxysuccinamate]	19.65 γ
CCCOC(=O)[C@H]1O[C@@H]1C(=O)Nc1ccccc1 (relative stereo) [Compound No. 62, Propyl N-phenyl-2,3-epoxysuccinamate]	6.16 γ
CCCOC(=O)[C@H]1O[C@@H]1C(=O)NC1CCCC1 (relative stereo) [Compound No. 63, Propyl N-cyclopentyl-2,3-epoxysuccinamate]	4.23 γ
CCCOC(=O)[C@H]1O[C@@H]1C(=O)NC(C)C (relative stereo) [Compound No. 64, Propyl N-isopropyl-2,3-epoxysuccinamate]	8.32 γ
CCNC(=O)[C@H]1O[C@@H]1C(=O)OC(C)C (relative stereo) [Compound No. 65, Isopropyl N-ethyl-2,3-epoxysuccinamate]	13.65 γ
CC(C)NC(=O)[C@H]1O[C@@H]1C(=O)OCc1ccccc1 (relative stereo) [Compound No. 67, Benzyl N-isopropyl-2,3-epoxysuccinamate]	5.14 γ
CCOC(=O)[C@H]1O[C@@H]1C(=O)NCCCCNC(=O)OCc1ccccc1 (relative stereo) [Compound No. 68, ethyl N-carbobenzoxyaminobutyl-2,3-epoxysuccinamate]	24.04 γ
CCOC(=O)[C@H]1O[C@@H]1C(=O)NCCCCCNC(=O)OCc1ccccc1 (relative stereo) [Compound No. 69, ethyl N-carbobenzoxyaminopentyl-2,3-epoxysuccinamate]	12.05 γ
COC(=O)[C@H]1O[C@@H]1C(=O)N1CCOCC1 (relative stereo) [Compound No. 70, Methyl N-oxydiethylene-2,3-epoxysuccinamate]	90.25 γ
C=CCOC(=O)[C@H]1O[C@@H]1C(=O)NCCc1ccccc1 (relative stereo) [Compound No. 71, Allyl N-phenethyl-2,3-epoxysuccinamate]	4.13 γ
CN1CCN(C(=O)[C@H]2O[C@@H]2C(=O)OCC2CCCC2)CC1 (relative stereo) [Compound No. 72, Cyclopentanemethyl N-N'-methylaminodiethylene-2,3-epoxysuccinamate]	146.51 γ
CCOC(=O)[C@@H]1O[C@H]1C(=O)N1CCCC1 (relative stereo) [Compound No. 73, ethyl N-tetramethylene-2,3-epoxysuccinamate]	128.50 γ
C#CCOC(=O)[C@@H]1O[C@H]1C(=O)N1CCCCC1 (relative stereo) [Compound No. 74, propargyl N-pentamethylene-2,3-epoxysuccinamate]	39.62 γ
CCOC(=O)[C@@H]1O[C@H]1C(=O)N1CCCC1C (relative stereo) [Compound No. 75, ethyl N-1'-methyltetramethylene-2,3-epoxysuccinamate]	130.10 γ
